From patent publication US7074831B2, “Compounds, methods for their preparation and use thereof” (Active Biotech AB, priority 2004, dated 2006)
Read-outs that look alike come from different tables or passages of the source.

Tests used:
recombinant human DHODH = recombinant human DHODH (Homo sapiens, UniProt Q02127); assay: Inhibition assay of DHODH activity (DHO-driven reduction of DCIP); assay type: biochemical
Protocol: Inhibition of recombinant human DHODH was assayed by the dihydroorotate (DHO) driven reduction of dichloroindophenol (DCIP), (Bruneau et al., 1998). The standard assay mixture contained 0.4 μg/mL recombinant protein, 50 mM Tris pH8, 100 μM decylubiquinone, 1 mM KCN, 200 μM DCIP and 0.1% Triton X-100. Inhibitory compounds were added at 10 different concentrations and the enzyme reaction initiated by the addition of 500 μM DHO. The reaction was allowed to continue for 10 minutes before the reduction of DCIP was measured in a microtiterplate reader as a decrease in absorbance at 650 nm. The IC50 values (concentration of inhibitor required for 50% inhibition) for each compound were calculated from the obtained dose response curves.

[1] = tested on: human T lymphoblast cell line (Jurkat); assay: Inhibition of T-cell proliferation (3H-TdR incorporation); assay type: cell-based; conditions: Jurkat cells; for IC50: 3 days, read-out: Inhibition of T-cell proliferation in vitro. IC50
Protocol: Inhibition of T cell proliferation was studied in a functional assay. A human T lymphoblast cell line (Jurkat) was cultured in the presence and absence of DHODH inhibiting compounds. Jurkat cells were seeded in microtiterplates at a concentration of 5×10^5/mL in RPMI 1640 growth media supplemented with ultraglutamin, 10% fetal calf serum, 1 mM sodium pyruvat, 10 mM HEPES and 0.1 mg/mL gentamycin. A dilution series of ten different concentrations of inhibitor was added to the wells and the plates were kept in a cell incubator for 3 days. At the beginning of the last 4 hours period, the cultures were pulsed with 10 μl/well 0.1Ci/mmol ^3H-TdR and then harvested on filter papers and counted with a β-counter. The IC50 values for each compound were calculated from the obtained dose response curves. Adding 50 μM uridine to the wells monitored the specificity for the mechanism. This reverses the antiproliferative effect by bypassing the DHODH enzyme using an external source of pyrimidine.
Inhibition of T cell proliferation was studied in a functional assay. Table 1 exemplifies the invention, without limiting the scope thereof. A human T lymphoblast cell line (Jurkat) was cultured in the presence of the compound to be screened. The IC50 value for each compound was calculated from the dose response curve. Adding uridine was used to monitor the specificity of the DHODH mechanism.

[2] = Determination of pharmacokinetic properties in the mouse (cassette dosing); assay type: in vivo; conditions: female, SJL/N Tac, plasma, iv, i.v. administration, nominal dose 1 mg/kg/compound
Protocol: Female mice (SJL/N Tac) were given a single intravenous or oral dose of a mixture of 4 or 6 compounds per cassette (nominal dose: 1 mg/kg/compound). The test items were formulated in physiological saline/5% Cremophor® to a final concentration of each 0.1 mg/mL. Blood samples were collected from vena cava (terminal bleed) into sodium heparinised tubes. The dose formulations and plasma concentrations of each compound were determined by LC-MS/MS. The pharmacokinetic parameters were determined by non-compartmental analysis using WinNonlin Professional (version 4.0.1).
The clearance (CL) and half-life (t1/2) of representative compounds in the mouse following i.v. administration are shown in Table 2. Table 2 exemplifies the invention, without limiting the scope thereof.

recombinant human DHODH, sequence (Q02127 whole entry): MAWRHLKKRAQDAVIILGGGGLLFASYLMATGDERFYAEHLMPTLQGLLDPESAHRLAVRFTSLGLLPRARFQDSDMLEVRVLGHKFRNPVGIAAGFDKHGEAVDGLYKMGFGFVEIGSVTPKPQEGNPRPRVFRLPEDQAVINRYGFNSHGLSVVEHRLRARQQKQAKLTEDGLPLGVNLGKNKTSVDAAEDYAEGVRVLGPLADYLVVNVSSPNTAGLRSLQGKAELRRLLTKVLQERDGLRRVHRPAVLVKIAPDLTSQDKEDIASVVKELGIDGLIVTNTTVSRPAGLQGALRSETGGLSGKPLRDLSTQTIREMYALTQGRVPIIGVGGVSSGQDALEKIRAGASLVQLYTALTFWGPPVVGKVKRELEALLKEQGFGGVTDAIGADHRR

| SMILES | IC50 ([1]; Homo sapiens, 72 h) [nM] | clearance [2] [mL/min/kg] | half-life [2] [h] | further results |
| --- | --- | --- | --- | --- |
| COc1ccc(OC)c(COc2ccc(O)c(C(=O)O)c2)c1 [5-(2,5-dimethoxy-benzyloxy)-2-hydroxy-benzoic acid] |  |  |  | DHODH inhibition (in words) (recombinant human DHODH): inactive |
| CCCNc1ccccc1Sc1ccc(NC(=O)CC)c(C(=O)O)c1 [Compound AA, 2-propionylamino-5-(2-propylamino-phenylsulfanyl)-benzoic acid] | 40 |  |  |  |
| CCCN(CCC)c1ccccc1Oc1ccc(NC(=O)CC)c(C(=O)O)c1 [Compound AB, 5-(2-dipropylamino-phenoxy)-2-propionylamino-benzioc acid] |  |  |  | IC50 [1]: 150 nM |
| CCC(=O)Nc1ccc(OCc2ccccc2OC(F)(F)F)cc1C(=O)O [Compound AC, 2-propionylamino-5-(2-trifluoromethoxy-benzyloxy)-benzoic acid] | 300 |  |  |  |
| CCC(=O)Nc1ccc(COc2ccccc2OC(F)(F)F)cc1C(=O)O [Compound AD, 2-propionylamino-5-(2-trifluoromethoxy-phenoxymethyl)-benzoic acid] | 240 |  |  |  |
| CCC(=O)Nc1ccc(Sc2ccccc2OC(F)(F)F)cc1C(=O)O [Compound AE, 2-propionylamino-5-(2-trifluoromethoxy-phenylsulfanyl)-benzioc acid] |  |  |  | IC50 [1]: 390 nM |
| CC(=O)Nc1ccc(CCc2ccccc2)cc1C(=O)O [Compound AF, 2-Acetylamino-5-phenethyl-benzoic acid, reference compound] |  | 16.2 | 0.29 |  |
| CCC(=O)Nc1ccc(/C=C/c2ccccc2)cc1C(=O)O [Compound AG, 2-Propionylamino-5-[(E)-styryl]-benzoic acid] |  | 2 | 10 |  |
| CCC(=O)Nc1ccc(/C=C/c2ccccc2C(F)(F)F)cc1C(=O)O [Compound Q] |  |  |  | IC50 [1]: 110 nM |
| CCC(=O)Nc1ccc(/C=C/c2cccc(C(F)(F)F)c2)cc1C(=O)O [Compound R] |  |  |  | IC50 [1]: 450 nM |

More lines, main results first:

| IC50 ([1]; Homo sapiens, 72 h) [nM] | clearance [2] [mL/min/kg] | half-life [2] [h] | SMILES | further results |
| --- | --- | --- | --- | --- |
|  | 0.3 | 6.6 | CCC(=O)Nc1ccc(Cc2ccccc2)cc1C(=O)O [Compound AH, 5-Benzyl-2-propionylamino-benzoic acid] |  |
| 6200 | 11.8 | 0.3 | COc1ccc(OC)c(COc2ccc(NC(C)=O)c(C(=O)O)c2)c1 [Compound G, 2-acetylamino-5-(2,5-dimethoxy-benzyloxy)-benzoic acid, reference compound] | inhibitory effect on T-cell proliferation (in words) [1]: only a weak inhibitory effect |
| 12000 |  |  | COc1ccc(OC)c(CCc2ccc(NC(C)=O)c(C(=O)O)c2)c1 [Compound H, 2-Acetylamino-5-[2-(2,5dimethoxy-phenyl)-ethyl]-benzoic acid, reference compound] | inhibitory effect on T-cell proliferation (in words) [1]: very weak inhibitory effect |
| 2900 |  |  | CCC(=O)Nc1ccc(CCc2ccccc2C(F)(F)F)cc1C(=O)O [Compound J, 2-propionylamino-5-[2-(2-trifluoromethyl-phenyl)-ethyl]-benzoic acid, reference compound] | inhibitory effect on T-cell proliferation (in words) [1]: weak antiproliferative effect |
| 790 | 1.17 | 2.2 | CCC(=O)Nc1ccc(NCc2ccccc2C(F)(F)F)cc1C(=O)O [Compound K, 2-propionylamino-5-(2-trifluoromethyl-benzylamino)-benzoic acid] |  |
| 780 | 0.25 | 3.1 | CCC(=O)Nc1ccc(Oc2ccccc2C(F)(F)F)cc1C(=O)O [Compound L, 2-propionylamino-5-(2-trifluoromethyl-phenoxy)-benzoic acid] |  |
| 330 | 1.83 | 4.9 | CCC(=O)Nc1ccc(OCc2ccccc2C(F)(F)F)cc1C(=O)O [Compound M, 2-propionylamino-5-(2-trifluoromethyl-benzyloxy)-benzoic acid] |  |
| 520 | 2.33 | 1.5 | CCC(=O)Nc1ccc(COc2ccccc2C(F)(F)F)cc1C(=O)O [Compound N, 2-propionylamino-5-(2-trifluoromethyl-phenoxymethyl)-benzoic acid] |  |
| 250 | 0.55 | 4.6 | CCC(=O)Nc1ccc(Sc2ccccc2C(F)(F)F)cc1C(=O)O [Compound O, 2-propionylamino-5-(2-trifluoromethyl-phenylsulfanyl)-benzoic acid] |  |
| 210 |  |  | CCC(=O)Nc1ccc(CSc2ccccc2C(F)(F)F)cc1C(=O)O [Compound P, 2-propionylamino-5-(2-trifluoromethyl-phenylsulfanylmethyl)-benzoic acid] |  |
| 140 |  |  | CCC(=O)Nc1ccc(Oc2cc(C(F)(F)F)cc(C(F)(F)F)c2)cc1C(=O)O [Compound S, 5-(3,5-bis-trifluoromethyl-phenoxy)-2-propionylamino-benzoic acid] |  |
| 240 |  |  | CCCNc1ccccc1Oc1ccc(NC(=O)CC)c(C(=O)O)c1 [Compound T, 2-propionylamino-5-(2-propylamino-phenoxy)-benzoic acid] |  |
| 110 |  |  | CCCNc1ccccc1COc1ccc(NC(=O)CC)c(C(=O)O)c1 [Compound U, 2-propionylamino-5-(2-propylamino-benzyloxy)-benzoic acid] |  |
